Consider 86 compounds from ChEMBL document CHEMBL1157539, “Thousands of chemical starting points for antimalarial lead identification” (Nature, 2010).

This test concerns Plasmodium falciparum. In words: GSK_TCMDC: Inhibition of Plasmodium falciparum 3D7 in whole erythrocytes, using parasite LDH activity as an index of growth. The class given is functional, organism-based. The note with it: Plasmodium falciparum, 3D7.
`O=C(/C=C/c1cc([N+](=O)[O-])ccc1Cl)N1CCC(CCN2CCC(c3c[nH]c4ccccc34)CC2)CC1` showed an XC50 of 742 nM.
Regarding `Cn1ccc2c3c(N)nc(N)nc3ccc21`, the XC50 is 902 nM.
The result for `CC(C)N1CCC(N(Cc2ccc(-c3ccc(C(F)(F)F)cc3)cc2)C(=O)Cn2c(SCc3cccc(F)c3F)cc(=O)c3ccccc32)CC1` reads 817 nM; that for `COc1ccc2nc(C)cc(Nc3ccc(Oc4ccc5ccccc5c4)c(Cl)c3)c2c1`, 691 nM.
In turn, `COc1ccc(-c2cncc3ccc(C(=O)NCCCn4ccnc4)nc23)cc1` had an XC50 of 748 nM.
The result for `O=C(NCCCCN1CC=C(c2ccc3c(c2OCc2ccccc2)CCCC3)CC1)c1ccc(-c2ccc(C(F)(F)F)cc2)cc1` reads 296 nM.
The result for `O=C(Nc1ccc(F)c(F)c1)c1ccc(CN2CCCN(Cc3cccc(F)c3)CC2)cc1` reads 1120 nM; that for `CN1CCN(CC(O)CNC(=O)Nc2ccc(Cl)cc2)CC1` (stereo unspecified), 230 nM; that for `CN(C)c1ccc(CN2CCCC(CNC(=O)c3ccc(-c4cccc(C(F)(F)F)c4)s3)C2)cc1` (stereo unspecified), 1200 nM.
The result for `COc1cc(Nc2nccc(-c3c(-c4cccc(NC(=O)c5c(F)cccc5F)c4)nn4ncccc34)n2)cc(OC)c1OC` reads 32.6 nM; that for `O=C(NCCNc1ccnc(Nc2ccc(F)cc2)n1)Nc1ccccc1F`, 762 nM; that for `COc1ccc2ncc(C#N)c(CCN3CCC(NCc4cnc5c(c4)OCCO5)CC3)c2n1`, 595 nM.
Take `CSc1cccc(NC(=O)Nc2ccc(I)c(OCCN(C)C)c2)c1`: the XC50 is 691 nM.
The result for `Cc1cc(-c2cccc(CNC3CCN(C)CC3)c2)ccc1S(=O)(=O)NCCN1CCCC1` reads 977 nM; that for `Cc1ccc2sc(N3CCN(C(=O)c4ccc([N+](=O)[O-])o4)CC3)nc2c1C`, 945 nM.
As for `CC1CN(c2cnn(C/C=C/c3ccc(NC(=O)c4ccc([N+](=O)[O-])cc4)cc3)c(=O)c2Cl)CC(C)N1` (stereo unspecified), the XC50 was 700 nM.
For `COc1ccc(CNC2CCN(C)CC2)cc1-c1ccc(OC)c(S(=O)(=O)NCc2ccccc2)c1`, the XC50 was 951 nM.
The result for `O=C(COc1ccc(C(=O)c2ccccc2)cc1)Nc1nccs1` reads 887 nM.
The result for `CCOC(=O)C1CCN(CCOc2cc(NC(=O)/C=C/c3ccccc3Cl)ccc2Br)CC1` reads 991 nM; that for `COc1ccc2nccc([C@@H](O)CN3CCC(NC(=O)C(c4cc5ccccc5o4)N4CCN(C(c5ccccc5)c5ccccc5)CC4)CC3)c2c1` (stereo partly specified), 149 nM; that for `COc1ccccc1CCNc1ncc(F)c(N[C@@H](Cc2ccccc2)C(=O)NCCc2ccccc2)n1`, 965 nM.
The result for `C=CCOC(=O)N1CCC(CNCc2cccc(-c3ccc(-c4nc5cc(C(F)(F)F)ccc5[nH]4)cc3)c2)C1` (stereo unspecified) reads 146 nM.
Consider `COc1ccc(-c2ccc(NC(=O)c3ccc(Cl)cc3)cc2)cc1CN1CCN(C)CC1`, for which the XC50 is 823 nM.
The result for `O=C(NC1CCC(CCN2Cc3ccc(Br)cc3C2)CC1)c1cccc(-c2cccnc2)c1` (stereo unspecified) reads 927 nM; that for `CCOc1c(CNCCCNc2nc3ccccc3[nH]2)cc(Br)cc1OC`, 557 nM.
`CNC(=O)c1cc(S(=O)(=O)N2CCN(c3ccccn3)CC2)cs1` showed an XC50 of 669 nM.
The result for `CCCC(=O)c1c(O)c2ccccc2oc1=O` reads 265 nM.
The result for `O=C(NCCCCN1CCC(c2ccc3c(c2O)CCCC3)CC1)c1ccc(-c2ccc(Cl)cc2)cc1` reads 754 nM.
The result for `COc1ccc(-c2nc3ccc(C)nc3nc2-c2ccc(OC)cc2)cc1` reads 1110 nM.
Turning to `O=[N+]([O-])c1ccc(C=NNc2nc3ccccc3[nH]2)cc1`, the XC50 was 283 nM.
The result for `Clc1ccc(-c2ccc(CNCCCN3CCCC3)cc2)cc1` reads 1060 nM.
The result for `CCOc1c(Br)cc(Cl)cc1CNCCCNc1nc2ccccc2[nH]1` reads 689 nM.
The result for `COc1ccc2nccc(NC(=O)N3CCC(NCc4cc5c(F)ccc(F)c5[nH]4)CC3)c2n1` reads 221 nM; that for `CC(=NNC(=N)N)c1ccc2c(c1)Cc1ccccc1-2`, 1410 nM.
For `O=C(NCc1ccccc1)Nc1cccc(-c2cccc(-c3nc4cc(C(F)(F)F)ccc4[nH]3)c2)c1`, the XC50 came to 264 nM.
The result for `Cc1noc(C)c1-c1ccc2c(Nc3ccc(C(F)(F)F)cc3)c(C(N)=O)cnc2c1` reads 319 nM; that for `Cc1ccc(NC(=O)N2CCN(CCCCCNC(=O)/C=C/c3ccc(Cl)c(Cl)c3)CC2)cc1C`, 1100 nM; that for `Cc1ccc2c(=NN=Cc3cccc(Cl)c3)cc(C)[nH]c2c1`, 949 nM.
The result for `CN1CCN(Cc2cc3cc(NC(=O)/C=C/c4ccc(Cl)cc4)ccc3s2)CC1` reads 767 nM; that for `COc1cc2nc(C)nc(Nc3ccc4c(ccn4Cc4ccccc4)c3)c2cc1OC`, 556 nM.
The result for `CCNc1cc(C)nc(Nc2ccccc2)n1` reads 883 nM; that for `COc1ccc(C(=O)N[C@@H](CC(C)C)C(=O)N[C@H](/C=N/NC(=O)c2ccccc2)CCc2ccccc2)cc1OCCN1CCOCC1`, 173 nM; that for `CC(O)C1CCCCN1C(=O)c1cccc(-c2cccc(-c3nc4cc(C(F)(F)F)ccc4[nH]3)c2)c1` (stereo unspecified), 280 nM.
In the case of `N=C(NCCCCCCCCNC(=N)Nc1ccc(Cl)cc1)Nc1ccc(Cl)cc1`, the XC50 is 590 nM.
With `CCn1c(-c2nc(-c3ccc4c(c3)OCO4)cnc2N)nc2cnccc21`, the XC50 was 429 nM.
On to `O=C(NC1CC1)c1ccc(N2CCCC(COc3ccc4c(c3)CCCC4)C2)nc1` (stereo unspecified), for which the XC50 was determined as 1080 nM.
The result for `CCOC(=O)/C(=N\OC(C)(C)C(=O)NCc1ccc(O)c(O)c1)c1csc(NC(c2ccccc2)(c2ccccc2)c2ccccc2)n1` reads 170 nM; that for `CC(C)CN1C(=O)c2ccccc2C(C(=O)Nc2cccc(C#N)c2)C1c1cccs1` (stereo unspecified), 159 nM.
The result for `COc1ccc(NC(=O)Nc2cccc(-c3ccncc3)c2)cc1N1CCN(C)CC1` reads 552 nM; that for `N#Cc1ccc2c(c1)CCN(CCC1CCC(NC(=O)/C=C/c3ccc4[nH]ccc4c3)CC1)CC2` (stereo unspecified), 1060 nM.
In turn, `COc1ccc2cc(C(=O)Nc3ccc4c(c3)CCN(C3CCC3)CC4)ccc2c1` yielded an XC50 of 838 nM.
For `Cc1[nH]c(C)c(-c2ccc(OCc3cccc(C(F)(F)F)c3)nc2)c(=O)c1Br`, the XC50 was 40.3 nM.
The result for `O=C(c1cccc(-c2cccc(-c3nc4ccccc4[nH]3)c2)c1)N1CCCCC1CN1CCC(O)C1` (stereo unspecified) reads 728 nM; that for `CCC(CCON1C(N)=NC(N)=NC1(C)C)c1ccc(Cl)c(Cl)c1` (stereo unspecified), 3.2 nM; that for `CCN(CC)CC(O)CNc1c2ccc([N+](=O)[O-])cc2nc2cc(OC)c(OC)cc12` (stereo unspecified), 266 nM.
On to `O=c1ccc2ccc(F)c3c2n1CC3CN1CCC(NCc2cccc(-c3ccccc3F)c2)CC1` (stereo unspecified), for which the XC50 worked out at 1100 nM.
The result for `O=C(NCC1CCCCC1)c1cc(=O)c2ccccc2o1` reads 320 nM; that for `O=C(Nc1ccc(OC2CCN(Cc3ccco3)CC2)c(Cl)c1)c1ccc2ncccc2c1`, 949 nM; that for `Cc1cc(-c2ccc(CNC3CCN(C)CC3)cc2)ccc1S(=O)(=O)NCc1ccccc1`, 851 nM.
The result for `Cc1c(-c2cccc(C(C)(C)NC3CCN(Cc4ccccc4)CC3)c2)cnc(N)c1C` reads 579 nM; that for `CC1(C)NC(N)=NC(=N)N1OCCCOc1cc(Cl)cc(Cl)c1`, 3.2 nM; that for `Cc1cc(NCCC(=O)NCCOc2ccccc2)nc(Nc2ccccc2)n1`, 1060 nM.
As to `CCOC(=O)c1ccc(N=C2SC(=Cc3cc(Br)ccc3O)C(=O)N2C)cc1`, the XC50 came to 998 nM.
The result for `O=C(NCC1CC1)C1Cc2c([nH]c3ccc(Br)cc23)C2(CCN(CCc3ccccc3)CC2)N1` (stereo unspecified) reads 908 nM; that for `Cc1c2c(nn1-c1ccccc1)C(c1ccccc1)N(c1ccccc1)C2=O` (stereo unspecified), 147 nM.
The result for `COc1ccc(C2CCN(CCCCNC(=O)c3ccc(NC(=O)c4ccc(Cl)cc4)cc3)CC2)c(C)c1` reads 747 nM; that for `CNCCNCc1ccc(-c2cccc(-c3nc4cc(F)ccc4[nH]3)c2)cc1`, 1130 nM; that for `N=C(N)NC(=O)Nc1cc(F)c(Cl)c(Br)c1`, 993 nM.
Turning to `Cc1cc(N[C@@H](Cc2ccccc2)C(=O)NCCOc2ccccc2)nc(NCCc2ccccn2)n1`, the XC50 was determined as 1520 nM.
The result for `CCOC(=O)/C(=N\OC(C(=O)OC(C)(C)C)c1ccccc1)c1csc(NC(c2ccccc2)(c2ccccc2)c2ccccc2)n1` (stereo unspecified) reads 1110 nM; that for `CCCN(C(=O)c1ccccc1C)c1nnc(-c2cccc(C)c2)s1`, 896 nM.
The result for `CC(C)(C)CCN1CCC(NC(=O)c2ccc(-c3cccc(C(F)(F)F)c3)s2)CC1` reads 755 nM.
The result for `CCc1cn2c3c(cc(C(=O)N[C@@H](Cc4cccc(Cl)c4)[C@H](O)CNC4CCCCC4)cc13)N(C)S(=O)(=O)CC2` reads 57.1 nM; that for `COC(=O)c1ccc2nc(-c3ccc(C(=O)NC4CCN(Cc5ccccc5)CC4)s3)[nH]c2c1`, 688 nM.
Take `O=C(/C=C/c1ccc(Cl)c(Cl)c1)N1CCC(CN2CCC(c3nc4ccccc4n3CCCO)CC2)CC1`: the XC50 was determined as 839 nM.
The result for `CCOC(=O)c1cccc(NC(=N)Nc2nc(C)cc(NCCc3ccccc3)n2)c1` reads 684 nM.
The result for `O=C(Nc1ccc(Cl)cc1)Nc1ccc(Cn2ncc(N3CCCNCC3)c(Cl)c2=O)cc1` reads 783 nM.
The result for `O=C(Nc1cccc(C(F)(F)F)c1)N1CCOC(CCN2CCC(c3ccccc3)CC2)(c2ccc(Cl)c(Cl)c2)C1` (stereo unspecified) reads 1110 nM.
With `CC(CCc1ccccc1)NCC(O)c1ccc2c3c(cccc13)S(=O)(=O)N2C` (stereo unspecified), the XC50 turned out to be 627 nM.
The result for `C=CCN1C(=O)c2[nH]nc(-c3cc(C)c(C)cc3O)c2C1c1cccc(Br)c1` (stereo unspecified) reads 1160 nM.
The result for `OC[C@H]1CCCN1CC#Cc1cc2c(Nc3ccc(OCc4cccc(F)c4)c(Cl)c3)ncnc2s1` reads 1210 nM.
The result for `CS(=O)(=O)c1cccc(-c2cnc(N)c3cc(-c4cccc(F)c4)ccc23)c1` reads 860 nM; that for `CCOc1ccccc1C(=O)N1CCc2cc3nccc(N4CCN5CCC[C@H]5C4)c3cc21`, 753 nM.
`COc1cc2nc(N3CCC(CNC(=O)c4cccc5cccnc45)CC3)nc(N)c2cc1OC` yielded an XC50 of 1700 nM.
The result for `c1cncc(CCNCc2ccc(-c3cccc(-c4nc5ccccc5[nH]4)c3)cc2)c1` reads 164 nM; that for `Cc1ccc(-c2cc3nc4c(c(NCCCn5ccnc5)n3n2)CCC4)cc1`, 925 nM.
